Assay results reported in ChEMBL document CHEMBL5465560, “Selectivity Literature for EUbOPEN Chemogenomic Library” (2024).
Blank lines part the entries; values can stand above or below the compound they belong to.

Legend:
[1] = target: Dual specificity protein kinase CLK2 (Homo sapiens, UniProt P49760); test: Selectivity interaction (Kinase panel (Z-LYTE Assay)) EUB0001632a CLK2; conditions: at 10 µM
[2] = target: Mitogen-activated protein kinase kinase kinase 11 (Homo sapiens) (UniProt Q16584); test: Selectivity interaction (KinomeScan (DiscoverX)) EUB0000607a MAP3K11; conditions: at 10 µM
[3] = test system: Phosphatidylinositol 4,5-bisphosphate 3-kinase catalytic subunit alpha isoform (Homo sapiens), P42336 [H1047L]; conditions: at 10 µM
[4] = target: Cyclin-dependent kinase 8 (Homo sapiens, UniProt P49336); conditions: at 10 µM
[5] = target: T1, Mitogen-activated protein kinase kinase kinase 3 (Homo sapiens) (UniProt Q99759); test: Selectivity interaction (KinomeScan (DiscoverX)) EUB0001049a MAP3K3; conditions: at 1 µM
T1 sequence (whole entry): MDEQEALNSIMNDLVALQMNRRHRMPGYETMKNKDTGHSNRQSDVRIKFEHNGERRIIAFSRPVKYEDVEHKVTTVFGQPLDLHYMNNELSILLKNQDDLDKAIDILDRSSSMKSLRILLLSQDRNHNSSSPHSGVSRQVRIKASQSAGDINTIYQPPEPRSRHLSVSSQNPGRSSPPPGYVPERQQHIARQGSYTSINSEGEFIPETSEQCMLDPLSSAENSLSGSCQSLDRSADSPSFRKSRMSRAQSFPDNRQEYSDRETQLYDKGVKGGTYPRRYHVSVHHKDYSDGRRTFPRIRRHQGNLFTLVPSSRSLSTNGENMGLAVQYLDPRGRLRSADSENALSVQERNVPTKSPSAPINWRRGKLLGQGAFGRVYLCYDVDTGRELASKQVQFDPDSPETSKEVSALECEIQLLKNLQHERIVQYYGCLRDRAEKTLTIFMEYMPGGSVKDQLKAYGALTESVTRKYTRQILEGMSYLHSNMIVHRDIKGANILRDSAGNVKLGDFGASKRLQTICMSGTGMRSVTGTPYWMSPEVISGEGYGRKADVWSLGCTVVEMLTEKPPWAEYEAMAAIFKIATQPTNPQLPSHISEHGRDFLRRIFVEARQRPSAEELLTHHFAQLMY

[6] = target: T2, Testis-specific serine/threonine-protein kinase 1 (Homo sapiens) (UniProt Q9BXA7); test: Selectivity interaction (KinomeScan (DiscoverX)) EUB0000229b TSSK1B; conditions: at 10 µM
T2 sequence (whole entry): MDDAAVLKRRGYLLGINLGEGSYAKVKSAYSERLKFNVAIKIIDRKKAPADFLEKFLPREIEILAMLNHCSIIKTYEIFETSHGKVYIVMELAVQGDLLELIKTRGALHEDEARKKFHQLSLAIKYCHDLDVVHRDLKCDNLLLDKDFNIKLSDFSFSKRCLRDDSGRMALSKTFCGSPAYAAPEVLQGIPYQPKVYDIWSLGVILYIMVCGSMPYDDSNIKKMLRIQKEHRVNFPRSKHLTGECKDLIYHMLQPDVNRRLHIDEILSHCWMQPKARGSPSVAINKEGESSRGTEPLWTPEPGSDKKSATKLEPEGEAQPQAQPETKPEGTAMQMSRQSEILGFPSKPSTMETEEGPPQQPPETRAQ

[7] = target: T3, Serine/threonine-protein kinase DCLK1 (Homo sapiens) (UniProt O15075); conditions: at 10 µM
T3 sequence (whole entry): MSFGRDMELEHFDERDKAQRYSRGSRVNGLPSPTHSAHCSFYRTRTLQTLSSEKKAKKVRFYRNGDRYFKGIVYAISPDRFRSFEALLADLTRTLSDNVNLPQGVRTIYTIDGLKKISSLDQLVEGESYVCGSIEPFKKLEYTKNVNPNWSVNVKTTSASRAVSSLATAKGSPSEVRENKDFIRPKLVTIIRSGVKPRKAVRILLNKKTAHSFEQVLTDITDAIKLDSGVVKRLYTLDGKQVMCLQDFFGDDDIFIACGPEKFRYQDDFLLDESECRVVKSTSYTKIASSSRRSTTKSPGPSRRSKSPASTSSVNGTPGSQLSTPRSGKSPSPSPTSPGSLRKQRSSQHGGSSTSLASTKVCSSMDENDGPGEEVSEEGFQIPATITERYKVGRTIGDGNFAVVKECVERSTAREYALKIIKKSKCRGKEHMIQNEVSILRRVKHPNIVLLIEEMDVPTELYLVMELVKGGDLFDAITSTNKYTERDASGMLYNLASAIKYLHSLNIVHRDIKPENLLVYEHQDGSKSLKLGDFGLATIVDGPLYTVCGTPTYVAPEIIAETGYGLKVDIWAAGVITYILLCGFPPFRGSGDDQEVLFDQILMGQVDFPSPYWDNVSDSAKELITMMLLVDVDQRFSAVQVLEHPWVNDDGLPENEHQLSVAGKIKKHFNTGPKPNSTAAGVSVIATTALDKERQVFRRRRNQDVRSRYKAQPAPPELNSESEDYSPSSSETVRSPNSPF

[8] = target: MAP/microtubule affinity-regulating kinase 3 (Homo sapiens) (UniProt P27448); test: Selectivity interaction (KinomeScan (DiscoverX)) EUB0000618a MARK3; conditions: at 10 µM
[9] = target: T4, Dual specificity protein kinase TTK (Homo sapiens) (UniProt P33981); test: Selectivity interaction (KinomeScan (DiscoverX)) EUB0001619a TTK; conditions: at 1 µM
T4 sequence (whole entry): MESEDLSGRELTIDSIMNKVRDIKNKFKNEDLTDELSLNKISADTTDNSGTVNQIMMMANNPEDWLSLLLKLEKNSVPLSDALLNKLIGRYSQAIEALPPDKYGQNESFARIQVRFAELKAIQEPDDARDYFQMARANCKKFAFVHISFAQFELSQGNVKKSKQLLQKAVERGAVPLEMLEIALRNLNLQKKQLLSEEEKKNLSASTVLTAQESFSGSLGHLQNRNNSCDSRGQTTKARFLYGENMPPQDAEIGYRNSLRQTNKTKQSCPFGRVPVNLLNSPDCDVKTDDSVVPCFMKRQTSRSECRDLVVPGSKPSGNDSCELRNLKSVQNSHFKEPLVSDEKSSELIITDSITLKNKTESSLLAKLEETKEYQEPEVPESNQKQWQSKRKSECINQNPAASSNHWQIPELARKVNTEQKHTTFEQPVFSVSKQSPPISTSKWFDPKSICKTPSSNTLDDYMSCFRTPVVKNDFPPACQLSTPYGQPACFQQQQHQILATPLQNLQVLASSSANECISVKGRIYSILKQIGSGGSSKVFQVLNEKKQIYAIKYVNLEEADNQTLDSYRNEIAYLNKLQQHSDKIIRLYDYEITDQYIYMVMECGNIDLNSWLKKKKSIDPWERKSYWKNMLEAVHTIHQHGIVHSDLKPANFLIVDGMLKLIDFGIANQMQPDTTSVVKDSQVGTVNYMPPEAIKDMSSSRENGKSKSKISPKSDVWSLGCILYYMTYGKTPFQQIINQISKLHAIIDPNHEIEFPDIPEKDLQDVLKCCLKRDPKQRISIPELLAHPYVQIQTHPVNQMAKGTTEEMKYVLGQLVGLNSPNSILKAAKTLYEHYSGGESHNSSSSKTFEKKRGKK

MAP/microtubule affinity-regulating kinase 3 (Homo sapiens), sequence (P27448 whole entry, looked up): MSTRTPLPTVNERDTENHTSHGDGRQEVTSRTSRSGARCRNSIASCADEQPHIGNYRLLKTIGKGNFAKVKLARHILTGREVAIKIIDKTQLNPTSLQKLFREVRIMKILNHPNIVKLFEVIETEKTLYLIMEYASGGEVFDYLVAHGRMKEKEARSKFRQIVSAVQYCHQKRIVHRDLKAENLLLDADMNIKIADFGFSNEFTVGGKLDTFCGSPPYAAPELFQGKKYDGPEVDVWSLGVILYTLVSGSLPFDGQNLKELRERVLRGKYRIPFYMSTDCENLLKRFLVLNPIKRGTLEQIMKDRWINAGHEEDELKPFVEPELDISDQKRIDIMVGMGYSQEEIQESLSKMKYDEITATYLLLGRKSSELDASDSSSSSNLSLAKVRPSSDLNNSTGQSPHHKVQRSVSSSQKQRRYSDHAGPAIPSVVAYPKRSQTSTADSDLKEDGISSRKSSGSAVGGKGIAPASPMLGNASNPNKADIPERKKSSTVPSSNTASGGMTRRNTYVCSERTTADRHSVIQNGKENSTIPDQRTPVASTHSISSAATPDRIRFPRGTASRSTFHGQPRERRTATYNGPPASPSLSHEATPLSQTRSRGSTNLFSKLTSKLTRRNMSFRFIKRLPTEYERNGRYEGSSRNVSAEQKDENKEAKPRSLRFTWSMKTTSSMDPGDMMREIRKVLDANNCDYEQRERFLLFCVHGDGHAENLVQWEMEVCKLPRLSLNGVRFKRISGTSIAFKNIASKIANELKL
Phosphatidylinositol 4,5-bisphosphate 3-kinase catalytic subunit alpha isoform (Homo sapiens), P42336 [H1047L], sequence (P42336 whole entry H1047L, canonical isoform): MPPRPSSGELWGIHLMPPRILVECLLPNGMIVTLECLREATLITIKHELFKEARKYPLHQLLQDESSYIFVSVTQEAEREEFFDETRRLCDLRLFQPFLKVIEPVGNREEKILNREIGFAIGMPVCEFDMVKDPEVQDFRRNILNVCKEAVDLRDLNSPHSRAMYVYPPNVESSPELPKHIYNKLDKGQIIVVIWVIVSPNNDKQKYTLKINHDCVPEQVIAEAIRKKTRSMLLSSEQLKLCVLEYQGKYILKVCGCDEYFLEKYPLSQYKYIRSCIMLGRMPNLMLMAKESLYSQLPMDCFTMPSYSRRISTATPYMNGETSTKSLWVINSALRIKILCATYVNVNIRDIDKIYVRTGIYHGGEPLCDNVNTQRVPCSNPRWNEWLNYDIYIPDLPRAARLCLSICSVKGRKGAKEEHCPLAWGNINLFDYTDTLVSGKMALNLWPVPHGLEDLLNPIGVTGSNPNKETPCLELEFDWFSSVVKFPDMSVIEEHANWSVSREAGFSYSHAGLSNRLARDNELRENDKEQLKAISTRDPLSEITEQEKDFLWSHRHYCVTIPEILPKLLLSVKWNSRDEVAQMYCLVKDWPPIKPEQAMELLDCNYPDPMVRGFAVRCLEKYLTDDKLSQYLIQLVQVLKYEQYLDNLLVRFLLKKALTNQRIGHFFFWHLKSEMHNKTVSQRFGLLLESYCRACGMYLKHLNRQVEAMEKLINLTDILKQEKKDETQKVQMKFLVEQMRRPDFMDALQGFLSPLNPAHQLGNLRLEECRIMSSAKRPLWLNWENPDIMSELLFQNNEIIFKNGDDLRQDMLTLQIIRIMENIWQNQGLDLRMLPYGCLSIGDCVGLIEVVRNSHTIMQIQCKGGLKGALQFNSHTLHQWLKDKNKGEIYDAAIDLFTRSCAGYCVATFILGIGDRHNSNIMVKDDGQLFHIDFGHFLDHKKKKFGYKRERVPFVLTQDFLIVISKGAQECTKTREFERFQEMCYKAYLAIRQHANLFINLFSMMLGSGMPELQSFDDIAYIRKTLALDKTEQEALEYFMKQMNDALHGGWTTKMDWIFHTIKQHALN
Mitogen-activated protein kinase kinase kinase 11 (Homo sapiens), sequence (Q16584 whole entry, looked up, canonical isoform): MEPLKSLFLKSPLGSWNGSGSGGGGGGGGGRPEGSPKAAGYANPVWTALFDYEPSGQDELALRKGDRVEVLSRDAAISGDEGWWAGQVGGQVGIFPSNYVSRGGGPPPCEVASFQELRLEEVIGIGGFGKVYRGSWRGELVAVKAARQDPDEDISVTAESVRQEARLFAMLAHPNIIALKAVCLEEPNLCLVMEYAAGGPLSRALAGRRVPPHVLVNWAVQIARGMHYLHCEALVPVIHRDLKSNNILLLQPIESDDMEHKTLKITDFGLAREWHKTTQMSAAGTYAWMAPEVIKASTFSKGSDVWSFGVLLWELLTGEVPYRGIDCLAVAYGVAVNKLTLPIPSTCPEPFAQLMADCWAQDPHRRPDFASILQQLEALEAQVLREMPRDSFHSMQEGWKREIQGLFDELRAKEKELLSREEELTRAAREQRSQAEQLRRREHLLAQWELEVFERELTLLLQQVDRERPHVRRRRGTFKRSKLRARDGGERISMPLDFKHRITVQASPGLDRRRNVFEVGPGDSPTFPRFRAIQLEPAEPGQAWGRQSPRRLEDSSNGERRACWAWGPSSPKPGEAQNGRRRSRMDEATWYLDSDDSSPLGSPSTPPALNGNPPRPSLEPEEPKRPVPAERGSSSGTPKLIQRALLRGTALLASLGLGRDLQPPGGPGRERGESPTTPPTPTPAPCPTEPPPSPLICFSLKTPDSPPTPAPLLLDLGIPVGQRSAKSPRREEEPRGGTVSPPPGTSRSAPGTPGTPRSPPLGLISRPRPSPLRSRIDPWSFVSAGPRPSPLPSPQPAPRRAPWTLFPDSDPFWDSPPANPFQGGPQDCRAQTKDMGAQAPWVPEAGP
Dual specificity protein kinase CLK2, sequence (P49760 whole entry, looked up): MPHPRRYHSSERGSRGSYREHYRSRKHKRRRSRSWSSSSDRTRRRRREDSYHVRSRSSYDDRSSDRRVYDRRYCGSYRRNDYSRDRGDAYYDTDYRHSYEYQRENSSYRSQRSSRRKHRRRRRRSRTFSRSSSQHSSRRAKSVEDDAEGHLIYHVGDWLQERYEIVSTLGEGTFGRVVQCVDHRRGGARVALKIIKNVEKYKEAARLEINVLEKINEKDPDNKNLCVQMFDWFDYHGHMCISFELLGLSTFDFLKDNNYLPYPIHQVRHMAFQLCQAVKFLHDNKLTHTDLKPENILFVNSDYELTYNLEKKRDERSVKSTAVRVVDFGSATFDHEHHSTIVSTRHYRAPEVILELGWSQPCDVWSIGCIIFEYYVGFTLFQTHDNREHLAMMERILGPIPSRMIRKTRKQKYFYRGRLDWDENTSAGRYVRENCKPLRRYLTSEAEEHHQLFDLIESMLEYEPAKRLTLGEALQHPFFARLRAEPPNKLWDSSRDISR
Cyclin-dependent kinase 8, sequence (P49336 whole entry): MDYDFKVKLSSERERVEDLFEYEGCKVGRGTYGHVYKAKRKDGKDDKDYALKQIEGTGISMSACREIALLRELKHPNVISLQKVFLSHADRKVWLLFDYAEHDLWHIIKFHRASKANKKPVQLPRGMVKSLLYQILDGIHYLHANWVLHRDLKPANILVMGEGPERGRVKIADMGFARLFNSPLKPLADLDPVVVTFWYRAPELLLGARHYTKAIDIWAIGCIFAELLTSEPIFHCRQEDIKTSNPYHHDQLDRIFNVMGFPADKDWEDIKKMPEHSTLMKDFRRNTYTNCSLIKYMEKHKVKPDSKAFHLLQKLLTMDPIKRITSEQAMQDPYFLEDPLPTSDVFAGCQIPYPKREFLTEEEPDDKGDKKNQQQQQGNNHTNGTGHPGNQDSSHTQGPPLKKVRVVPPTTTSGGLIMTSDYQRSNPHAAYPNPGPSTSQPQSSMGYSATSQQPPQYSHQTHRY

% of control [1]: 4.94%
Compound: Cn1cc(-n2cnc3c(NCc4nc5cc(Cl)c(Cl)cc5[nH]4)nc(N4CCOCC4)nc32)cn1

Compound: CNC(=O)Nc1ccc(-c2nc(N3CC4CCC(C3)O4)c3cnn(C4CCC5(CC4)OCCO5)c3n2)cc1
% of control [2]: 100%
% of control [3]: 15%

% of control [4]: 100%
Compound: CCN(CC)CCCCNc1ncc2cc(-c3cc(OC)cc(OC)c3)c(NC(=O)NC(C)(C)C)nc2n1

Compound: COc1cc(Nc2nc(C)cc(-c3cnn4nc(OC)ccc34)n2)cc(C(F)(F)F)c1
% of control [5]: 72%

Compound: COc1cc(N(C)c2ccnc3ccc(C(F)(F)F)cc23)cc(OC)c1OC
% binding [6]: 91%

Compound: Cc1cc([C@@H](C)Nc2ccccc2C(=O)O)c2nc(N3CCOCC3)cc(=O)n2c1 [AZD-6482]
% of control [7]: 78%

Compound: O[C@H]1CC[C@H](Nc2ncc3nc(Nc4c(F)cc(F)cc4F)n([C@H]4CCOC4)c3n2)CC1
% of control [8]: 97%

Compound: N#Cc1cccc(-c2c[nH]c3ncnc(N4CCOCC4)c23)c1
% of control [9]: 92%
